{"source": "paper PMC5514153", "about": "“Targeting PTPRZ inhibits stem cell-like properties and tumorigenicity in glioblastoma cells” (Scientific Reports, 2017)", "key": {"[1]": {"conditions": "not told; cited from earlier work"}, "[2]": {"system": "PTPRZ and PTPRG V-to-F substitution mutants", "test": "Sensitivity of V-to-F mutants to competitive inhibitors", "type": "biochemical, human", "conditions": "SCB4380 10 µM, vanadate 200 µM; on average", "method": "For determination of IC50 values, Lineweaver-Burk plot, and inhibitor sensitivity assays, recombinant PTP proteins were preincubated with a dilution series of the compound in assay buffer (100 mM acetate, 50 mM Tris, and 50 mM Bis-Tris, pH 6.5 containing 100 μg/ml BSA, 5 mM DTT, and 0.01% Brij-35) for 1 h, and the enzyme-inhibitor mixture was added to an equal volume of 40 μM DiFMUP (6,8-difluoro-4-methylumbiliferyl phosphate, #D6567, Thermo Fisher Scientific) solution to initiate the reaction. The hydrolysis of DiFMUP was continuously monitored as an increase in fluorescence at 455 nm (excitation at 358 nm) for ~100 s using a spectrofluorometer (FI-4500, Hitachi) at room temperature. The slope of the fluorescence signal was defined as catalytic activity. IC50 values were calculated by the conventional linear interpolation method. We examined preincubation effect, reversibility, and time dependence of PTP inhibition by NAZ2329 as described in the figure legends.\nLe ge nds to Supple me ntary Figure s\nSupplementary Figure S1. Aberrant expressions of core transcription factors in Ptprz-knockdown glioblastoma cells. (A) Western using antibodies against SOX2, OLIG2, POU3F2, and SALL2. […] SALL2 proteins were not detected in C6 or U251 cells. […]\npositions corresponding to Val-1911 of PTPRZ1 are colored in blue and red, respectively. […] Data were analyzed as […]"}, "[3]": {"target": "T1, human PTPRZ1 (whole intracellular region, D1+D2) (Homo sapiens, UniProt P23471)", "T1 construct": "Recombinant proteins corresponding to the entire intracellular regions (ICRs) of PTPRZ1, PTPRA, and PTPRM; made in house; host or cells: baculovirus-silkworm expression system", "T1 sequence (P23471 1663-2315 limits assumed)": "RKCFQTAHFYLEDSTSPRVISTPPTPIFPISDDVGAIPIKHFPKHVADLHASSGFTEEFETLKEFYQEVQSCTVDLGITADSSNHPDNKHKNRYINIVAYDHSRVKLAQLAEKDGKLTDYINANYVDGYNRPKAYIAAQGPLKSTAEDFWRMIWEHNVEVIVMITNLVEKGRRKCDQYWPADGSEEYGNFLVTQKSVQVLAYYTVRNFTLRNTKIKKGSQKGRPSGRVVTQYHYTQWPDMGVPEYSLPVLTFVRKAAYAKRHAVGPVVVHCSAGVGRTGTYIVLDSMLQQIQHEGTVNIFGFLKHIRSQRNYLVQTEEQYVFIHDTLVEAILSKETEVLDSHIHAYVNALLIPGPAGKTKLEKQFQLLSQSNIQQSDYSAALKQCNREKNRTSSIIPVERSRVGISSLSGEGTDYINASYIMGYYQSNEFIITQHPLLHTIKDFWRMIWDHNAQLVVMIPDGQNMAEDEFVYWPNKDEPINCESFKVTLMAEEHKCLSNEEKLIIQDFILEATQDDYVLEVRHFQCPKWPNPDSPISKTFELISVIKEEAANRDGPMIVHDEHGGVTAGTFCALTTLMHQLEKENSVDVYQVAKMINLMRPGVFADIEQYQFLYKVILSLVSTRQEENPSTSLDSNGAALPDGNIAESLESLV", "test": "In vitro PTPase assay (DiFMUP), PTPRZ1 whole intracellular region", "type": "biochemical", "method": "Figure 4 NAZ2329, an allosteric inhibitor of R5 RPTP subfamily members. (A) Structure of NAZ2329. (B) Effect of preincubation of NAZ2329 on its inhibitory activity against PTPRZ. Recombinant human PTPRZ1 enzyme (the whole intracellular region) was premixed with NAZ2329 for the indicated times and followed by addition of a fluorogenic DiFMUP (non-specific PTP substrate, 6,8-difluoro-4-methylumbiliferyl phosphate) to measure PTP inhibitory activity. (C) Time dependence. The PTPRZ1 enzyme was added to the inhibitor–substrate mixture, and the inhibitory activity was determined at each time point relative to the vehicle control. (D) Reversibility of inhibition. PTPRZ1 enzymes were preincubated with NAZ2329 at the indicated concentrations for 30 min. The mixture was then 20-fold diluted, and recovered PTP activity was expressed as the relative activity compared with the vehicle-treated enzyme. (E) Lineweaver-Burk plot analysis. PTPRZ1 enzymes were preincubated with NAZ2329 for 60 min, and the PTP activity was measured using DiFMUP. (F) Concentration-inhibition curves of NAZ2329 for representative PTP members, including human PTPRZ and PTPRG (another R5 RPTP subfamily member), human PTPRS (R2A subfamily), human PTPRM (R2B subfamily), mouse PTPRB (R3 subfamily), human PTPRA (R4 subfamily), human PTPN1 (non-transmembrane PTP, NT1 subfamily), and human PTPN6 (NT2 subfamily), were generated. Assays were performed using DiFMUP. IC50 values obtained are shown in the inset. Data represent the averages of two or three separate experiments. TEXT PRINTED IN THE PICTURE: (F) NAZ2329: IC50 (μM): hPTPRZ1 7.5; IC50 (μM): hPTPRG 4.8; IC50 (μM): hPTPRA 35.7; IC50 (μM): hPTPRM 56.7; IC50 (μM): hPTPRS 23.7; IC50 (μM): mPTPRB 35.4; IC50 (μM): hPTPN6 15.2; IC50 (μM): hPTPN1 14.5\nRecombinant proteins corresponding to the entire intracellular regions (ICRs) of PTPRZ1, PTPRA, and PTPRM were expressed using a baculovirus-silkworm expression system, and purified as described. The ICRs of PTPRG, PTPRS, and PTPRB and the catalytic domains of PTPN1 and PTPN6 were expressed as glutathione-S-transferase (GST) fusion proteins from each pGEX plasmid in Escherichia coli strain BL21 (ref. [6]). GST fusion proteins were purified by glutathione affinity chromatography as described. Chondroitinase ABC (chABC) was purchased from Sigma-Aldrich (catalog #C3667). Anti-PTPRZ-S, rabbit polyclonal antibodies against the extracellular region of PTPRZ was described previously (ref. [44]). The following are the specificities and sources of the commercially available antibodies used in the present study: Anti-RPTPβ (a monoclonal antibody against the intracellular domain of PTPRZ1 receptors, #610179, BD Biosciences), anti-SOX2 (#ab97959, Abcam), anti-POU3F2 (#12137, Cell Signaling), anti-OLIG2 (#AB9610, Millipore), anti-SALL2 (#12679–1-AP, Proteintech Group), anti-GAPDH (#ab9482, Abcam) anti-phosphotyrosine (PY20; #ab16389, Abcam), and anti-pY118-paxillin (#2541, Cell Signaling), mouse anti-paxillin antibody (#610569, BD Bioscience), anti-MBP (#sc-13914, Santa Cruz Biotechnology), and anti-NG2 proteoglycan (#AB5320, Millipore). […]"}, "C6 xenograft": {"system": "C6 xenograft", "test": "C6 subcutaneous xenograft nude mouse model", "type": "in vivo", "conditions": "nude mice, i.p. twice per week; NAZ2329 45 µmol (22.5 mg)/kg, TMZ 50 mg/kg; vehicle 17 days", "method": "Figure 10 Antitumor effects of NAZ2329 on the C6 mouse xenograft model. (A) Nude mice were subcutaneously implanted with C6 cells (5 × 10^6 cells), and tumor size was monitored until the criteria were met (>150 mm^3). At this time, mice were randomly divided into 4 treatment groups. DMSO as the vehicle control (n = 7), NAZ2329 (45 µmol (22.5 mg)/kg body weight, n = 9), temozolomide (TMZ, 50 mg/kg, n = 9), and the combination of NAZ2329 (45 µmol/kg) with TMZ (50 mg/kg) (n = 9) were administered intraperitoneally twice per week until the humane endpoint (>3,000 mm^3 tumor size or 40 days after the treatment). Tumor growth in each animal and the number of days required to reach a tumor volume of 3,000 mm^3 are shown in the graph. Five mice were sacrificed due to tumor necrosis (shown by gray symbols in the graph), and two mice unexpectedly died suddenly during the observation period (black symbols in the graph).\nParental or Ptprz-knockdown C6 cells (5 × 10^6 cells) suspended in a volume of 100 µl were subcutaneously injected into the left hind limbs of BALB/c-nu/nu mice (females, 4 weeks old mice were purchased from Japanese Charles River Co. Ltd.). Tumor growth was measured with calipers and calculated by the formula: volume = length × width × width × 0.5, as previously described. The drug treatment initiated when the tumor size reached 150 mm^3. […]"}, "hPTPRZ1 (D1)": {"target": "T2, hPTPRZ1 (D1) (Homo sapiens, UniProt P23471)", "T2 construct": "human PTPRZ1-D1 (amino acid residues, 1,698-2,000)", "T2 sequence (P23471 1698-2000 limits assumed)": "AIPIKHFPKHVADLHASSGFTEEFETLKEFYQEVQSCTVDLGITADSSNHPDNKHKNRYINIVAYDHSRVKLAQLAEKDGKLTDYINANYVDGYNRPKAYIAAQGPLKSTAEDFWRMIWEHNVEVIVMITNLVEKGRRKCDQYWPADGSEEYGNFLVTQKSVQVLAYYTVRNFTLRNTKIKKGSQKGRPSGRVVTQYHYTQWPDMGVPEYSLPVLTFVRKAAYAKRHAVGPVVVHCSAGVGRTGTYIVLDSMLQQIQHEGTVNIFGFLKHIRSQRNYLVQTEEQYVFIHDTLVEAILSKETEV", "test": "In vitro PTPase assay (DiFMUP), PTPRZ1 D1 domain", "type": "biochemical", "conditions": "first PTP domain fragment"}}, "data": [{"smiles": "O=S(=O)([O-])c1ccc2c(N=Nc3ccc(S(=O)(=O)[O-])c4ccccc34)c(O)c(S(=O)(=O)[O-])cc2c1.[Na+].[Na+].[Na+]", "note": "[SCB4380]", "values": [{"measurement": "cell permeability", "setting": "[1]", "result": "cell impermeable"}, {"measurement": "change in sensitivity on V-to-F substitution in PTPRZ and PTPRG", "setting": "[2]", "result": "~ 5%"}]}, {"smiles": "Cn1nnc2c(C(N)=O)ncn2c1=O", "note": "[temozolomide, reference compound]", "values": [{"measurement": "inhibitory effects on PTPRZ activity", "setting": "[3]; Supplementary Fig. S2", "result": "no significant inhibitory effects"}, {"measurement": "IC50 hPTPRZ1 (D1+D2)", "setting": "[3]; whole intracellular region, DiFMUP, 60-min preincubation", "result": "ns"}, {"measurement": "median day for the tumor size to reach 3,000 mm^3", "setting": "C6 xenograft", "result": 25, "unit": "days"}, {"measurement": "IC50 hPTPRZ1 (D1)", "setting": "hPTPRZ1 (D1)", "result": "ns"}]}, {"smiles": "[O]=[V]([O-])([O-])[O-]", "note": "[vanadate]", "values": [{"measurement": "change in sensitivity on V-to-F substitution in PTPRZ and PTPRG", "setting": "[2]", "result": "~ 5%"}]}]}
